Assay results from patent publication US20210205236A1, “THERAPEUTIC COMBINATIONS OF BOSWELLIA EXTRACT AND CANNABINOIDS” (priority 2018, published 2021).

Target: T1, CB1 receptor (Homo sapiens, UniProt P21554)
T1 construct: expressed in transfected cells
Assay: cell-based
Assay type: cell-based

[1] = CBD 1 μM without AKBA, CP55940-induced activity = 100%
[2] = CBD 1 μM without AKBA, Table 3 data re-expressed as fold change

T1 sequence (P21554 whole entry): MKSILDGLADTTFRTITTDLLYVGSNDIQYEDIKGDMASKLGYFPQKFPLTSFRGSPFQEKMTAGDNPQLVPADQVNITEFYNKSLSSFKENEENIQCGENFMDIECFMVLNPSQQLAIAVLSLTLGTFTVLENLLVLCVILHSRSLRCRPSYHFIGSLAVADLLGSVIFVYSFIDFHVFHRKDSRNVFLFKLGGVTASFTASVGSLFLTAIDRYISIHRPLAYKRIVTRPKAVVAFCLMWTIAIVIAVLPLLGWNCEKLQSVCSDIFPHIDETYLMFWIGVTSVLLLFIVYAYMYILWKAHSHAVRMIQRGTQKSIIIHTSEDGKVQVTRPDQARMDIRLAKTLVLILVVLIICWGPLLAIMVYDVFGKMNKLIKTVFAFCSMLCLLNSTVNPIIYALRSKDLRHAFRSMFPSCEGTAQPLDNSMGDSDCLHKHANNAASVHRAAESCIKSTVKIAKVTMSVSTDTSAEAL

C=C(C)[C@@H]1CCC(C)=C[C@H]1c1c(O)cc(CCCCC)cc1O [CBD, cannabidiol, reference compound]
Effect of cannabinoid on AKBA CB1R positive allosteric activity (AKBA 50 and 100 μM, THCA 10 μM or CBD 1 μM): almost abolished
Conclusions: Is CB1R antagonist effect observed? (CBD 1 μM without AKBA, % of activity data): + (A reduction of the percentage below 50% indicates CB1R antagonistic activity)
Experiment 1 % of activity [1]: 66.2%
Experiment 2 % of activity [1]: 70.7%
Experiment 3 % of activity [1]: 69.5%
Experiment 1 Fold change [2]: 1.7 Fold change
Experiment 2 Fold change [2]: 1.8 Fold change
Experiment 3 Fold change [2]: 1.7 Fold change
Conclusions: Is CB1R antagonist effect observed? (CBD 1 μM without AKBA, positive allosteric activity, fold change data): Negative (Only treatments that the mean of three consecutive independent experiments show a positive result (CB1R activity ≥ 4-fold change) are considered positive CB1R allosteric agonists)
